Experimental data reported in patent US20130059787A1, “METHODS OF USING HUMAN PROTEIN KINASE C DELTA VIII AS A BIOMARKER” (UNITED STATES DEPARTMENT OF VETERAN AFFAIRS, priority 2010, published 2013).

Key:
PKCδVIII mRNA = experiment: Quantitative real-time RT-PCR (SYBR Green) in primary human neuronal cells from hippocampus; format: cell-based; details: RA about 10 μM, about 24 h
Excerpt: (§1) FIG. 1 is a series of images illustrating the alternative splice site in human PKC δ. (a) schematic of alternative 5′ splice site selection in human PKCδ pre-mRNA exon 10 that results in the generation of PKCδI mRNA and PKCδVIII mRNA, which differ by about 93 bp in the V3 hinge region. RA promotes expression of PKCδVIII mRNA. SSI: 5′ splice site I; SSII: 5′ splice site II. (b) schematic of the primers specific for PKC δI and PKC δVIII used in real time RT-PCR such that they span the exon-exon boundaries. (c) primary human neuronal cells from hippocampus were treated with or without RA (about 10 μM) for about 24 h. […]
(§2) cDNA (about 2 μl) was amplified by real-time quantitative PCR using Syber (SYBR) Green with an ABI PRISM 7900 sequence detection system (PE Applied Biosystems, Foster City, Calif.) as described previously to quantify absolute levels of PKCδI and PKCδVIII mRNA in the samples (Jiang, K., Apostolatos, A. H., Ghansah, T., Watson, J. E., Vickers, T., Cooper, D. R., Epling-Burnette, P. K., and Patel, N. A. (2008) Biochemistry 47, 787-797). […]
(§3) sense primer 5′-[…]-3′(SEQ ID No: 6) and antisense primer 5′-[…]-3′ (SEQ ID No: 7). […] Absolute quantification of mRNA expression levels for PKCδI and PKCδVIII was calculated by normalizing the values to GAPDH. The results were analyzed with two-tailed Student's t test using PRISM4 statistical analysis software (GraphPad, San Diego, Calif.). […]

PKCδI mRNA = experiment: as above; format: cell-based; details: RA about 10 μM, about 24 h
Excerpt: as §1, §2, §3

CC1=C(/C=C/C(C)=C/C=C/C(C)=C/C(=O)O)C(C)(C)CCC1 [RA, all-trans-retinoic acid]
absolute mRNA expression of PKCδVIII normalized to GAPDH (PKCδVIII mRNA): increased
absolute mRNA expression of PKCδI normalized to GAPDH (PKCδI mRNA): remain constant
